pIC50: −log10 of the molar value.
Assays:
Type in all cases: biochemical
JNK1 = JNK1 (Homo sapiens, UniProt P45983); assay: 33PanQinase enzyme assay, JNK1; set-up: purchased ProQinase GmbH, Freiburg, Germany (33PanQinase Assay Service); conditions: ratio IC50(JNK1)/IC50(MKK4)
Outline: (§1)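 Radiometric 33PanQinase format: kinase with substrate, ATP and compound (added in 10% DMSO stock) incubated 60 min at 30° C, stopped with 2% H3PO4, ^33Pi incorporation counted by scintillation. Single-concentration data given as % residual activity; IC50 by least-squares fit, with selectivity as IC50(off-target)/IC50(MKK4).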

BRaf = target: T1, BRaf (Homo sapiens, UniProt P15056); assay: 33PanQinase enzyme assay, BRaf; conditions: ratio IC50(BRaf)/IC50(MKK4)
T1 construct: purchased ProQinase GmbH, Freiburg, Germany (33PanQinase Assay Service)
T1 sequence (P15056 whole entry, species assumed): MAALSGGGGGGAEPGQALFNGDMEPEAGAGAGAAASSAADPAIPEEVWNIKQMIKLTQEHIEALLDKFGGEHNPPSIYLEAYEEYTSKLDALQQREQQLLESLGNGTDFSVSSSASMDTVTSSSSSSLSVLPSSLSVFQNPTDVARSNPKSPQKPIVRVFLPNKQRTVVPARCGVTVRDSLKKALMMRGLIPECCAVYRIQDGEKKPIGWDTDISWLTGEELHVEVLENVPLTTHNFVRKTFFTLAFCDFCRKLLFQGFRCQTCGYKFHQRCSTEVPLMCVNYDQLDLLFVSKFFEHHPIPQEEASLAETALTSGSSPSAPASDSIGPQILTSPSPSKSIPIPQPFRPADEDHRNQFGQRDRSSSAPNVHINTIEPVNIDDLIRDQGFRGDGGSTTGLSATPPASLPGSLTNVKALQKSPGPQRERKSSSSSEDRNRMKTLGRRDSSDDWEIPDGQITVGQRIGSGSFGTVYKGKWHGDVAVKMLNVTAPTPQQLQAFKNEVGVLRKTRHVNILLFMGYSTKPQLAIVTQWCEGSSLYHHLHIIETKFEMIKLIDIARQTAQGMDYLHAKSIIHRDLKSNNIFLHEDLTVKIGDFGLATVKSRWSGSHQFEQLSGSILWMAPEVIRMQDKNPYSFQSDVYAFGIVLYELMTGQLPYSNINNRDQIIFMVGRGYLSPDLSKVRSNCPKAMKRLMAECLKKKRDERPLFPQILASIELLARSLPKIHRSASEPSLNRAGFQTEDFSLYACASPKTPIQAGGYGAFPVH
Outline: as §1

MKK4 = target: T2, MKK4 (Homo sapiens, UniProt P45985); assay: 33PanQinase enzyme assay, MKK4; conditions: assay 'IC50'; read-out: Potency MKK4 (IC50)
T2 construct: purchased ProQinase GmbH, Freiburg, Germany (33PanQinase Assay Service)
T2 sequence (P45985 1-399): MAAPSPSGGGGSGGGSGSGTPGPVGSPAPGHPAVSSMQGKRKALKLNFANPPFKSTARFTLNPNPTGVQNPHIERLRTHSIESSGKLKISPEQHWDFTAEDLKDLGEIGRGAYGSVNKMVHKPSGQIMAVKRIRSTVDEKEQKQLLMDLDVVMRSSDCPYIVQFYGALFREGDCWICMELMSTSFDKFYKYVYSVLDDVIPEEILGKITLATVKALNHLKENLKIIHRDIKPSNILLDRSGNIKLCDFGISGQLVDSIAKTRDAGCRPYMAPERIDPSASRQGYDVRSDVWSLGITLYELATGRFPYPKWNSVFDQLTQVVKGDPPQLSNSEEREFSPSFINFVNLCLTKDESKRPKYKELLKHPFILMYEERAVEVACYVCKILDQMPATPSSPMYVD
Outline: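 Radiometric 33PanQinase assay: kinase, substrate, ATP and compound in standard buffer, 60 min at 30 °C; 33Pi incorporation read by scintillation counting.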

MKK7 = target: T3, MKK7 (Homo sapiens, UniProt O14733); assay: 33PanQinase enzyme assay, MKK7; set-up: purchased ProQinase GmbH, Freiburg, Germany (33PanQinase Assay Service); conditions: ratio IC50(MKK7)/IC50(MKK4)
T3 sequence (O14733 1-419): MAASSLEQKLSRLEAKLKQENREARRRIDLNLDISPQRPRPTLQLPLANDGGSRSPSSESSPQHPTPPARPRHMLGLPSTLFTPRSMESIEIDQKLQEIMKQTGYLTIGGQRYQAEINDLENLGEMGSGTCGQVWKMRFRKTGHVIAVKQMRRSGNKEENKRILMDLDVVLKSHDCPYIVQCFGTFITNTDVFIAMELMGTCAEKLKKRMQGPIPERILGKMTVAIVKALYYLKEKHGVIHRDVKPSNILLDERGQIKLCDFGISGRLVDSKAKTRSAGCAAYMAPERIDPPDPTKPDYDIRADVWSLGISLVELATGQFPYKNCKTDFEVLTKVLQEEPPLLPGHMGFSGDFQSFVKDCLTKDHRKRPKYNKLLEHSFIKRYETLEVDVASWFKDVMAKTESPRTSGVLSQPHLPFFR
Outline: as §1

Chain of JNK1 (P45983 whole entry): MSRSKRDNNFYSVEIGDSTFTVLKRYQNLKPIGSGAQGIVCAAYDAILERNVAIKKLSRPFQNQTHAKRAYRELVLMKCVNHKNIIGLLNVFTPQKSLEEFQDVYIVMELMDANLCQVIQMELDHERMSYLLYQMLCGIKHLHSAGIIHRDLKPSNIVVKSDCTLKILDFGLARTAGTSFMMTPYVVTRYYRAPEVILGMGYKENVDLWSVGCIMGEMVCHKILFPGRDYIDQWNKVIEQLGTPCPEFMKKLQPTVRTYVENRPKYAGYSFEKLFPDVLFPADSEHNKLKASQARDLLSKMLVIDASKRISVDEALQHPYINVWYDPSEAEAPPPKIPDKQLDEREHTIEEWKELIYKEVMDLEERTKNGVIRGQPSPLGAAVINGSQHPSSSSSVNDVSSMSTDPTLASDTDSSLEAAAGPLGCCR

Structure (SMILES)	Selectivity JNK1, IC50(off-target)/IC50(MKK4) (JNK1)	Selectivity Braf, IC50(off-target)/IC50(MKK4) (BRaf)	pIC50 (MKK4)	Selectivity IVIKK7, IC50(off-target)/IC50(MKK4) (MKK7)
CCCS(=O)(=O)Nc1c(F)ccc(C(=O)c2c[nH]c3ncc(-c4cnc(N(C)CCO)nc4)cc23)c1F [Example 202, N-(2,6-difluoro-3-(5-(2-((2-hydroxyethyl)(methyl)amino)pyrimidin-5-yl)-1H-pyrrolo[2,3-b]pyridine-3-carbonyl)phenyl)propane-1-sulfonamide]	+++ (IC50(off-target)/IC50(MKK4) > 100)	++ (100 ≥ IC50(off-target)/IC50(MKK4) > 10)	> 7.00	+++ (IC50(off-target)/IC50(MKK4) > 100)
CCCS(=O)(=O)Nc1c(F)ccc(C(=O)c2c[nH]c3ncc(-c4cnc(N5CC[C@H](O)C5)nc4)cc23)c1F [Example 203, (S)-N-(2,6-difluoro-3-(5-(2-(3-hydroxypyrrolidin-1-yl)pyrimidin-5-yl)-1H-pyrrolo[2,3-b]pyridine-3-carbonyl)phenyl)propane-1-sulfonamide]	+++ (IC50(off-target)/IC50(MKK4) > 100)	++ (100 ≥ IC50(off-target)/IC50(MKK4) > 10)	> 7.00	+++ (IC50(off-target)/IC50(MKK4) > 100)
CCCS(=O)(=O)Nc1c(F)ccc(C(=O)c2c[nH]c3ncc(-c4cnc(N5CC[C@@H](O)C5)nc4)cc23)c1F [Example 204, (R)-N-(2,6-difluoro-3-(5-(2-(3-hydroxypyrrolidin-1-yl)pyrimidin-5-yl)-1H-pyrrolo[2,3-b]pyridine-3-carbonyl)phenyl)propane-1-sulfonamide]	+++ (IC50(off-target)/IC50(MKK4) > 100)	++ (100 ≥ IC50(off-target)/IC50(MKK4) > 10)	6.00 to 7.00	+++ (IC50(off-target)/IC50(MKK4) > 100)
CCCS(=O)(=O)Nc1c(F)ccc(C(=O)c2c[nH]c3ncc(-c4cnc(N5CC(O)C5)nc4)cc23)c1F [Example 205, N-(2,6-difluoro-3-(5-(2-(3-hydroxyazetidin-1-yl)pyrimidin-5-yl)-1H-pyrrolo[2,3-b]pyridine-3-carbonyl)phenyl)propane-1-sulfonamide]	++ (100 ≥ IC50(off-target)/IC50(MKK4) > 10)	++ (100 ≥ IC50(off-target)/IC50(MKK4) > 10)	6.00 to 7.00	+++ (IC50(off-target)/IC50(MKK4) > 100)
CCCS(=O)(=O)Nc1c(F)ccc(C(=O)c2c[nH]c3ncc(-c4cnc(CC)nc4)cc23)c1F [Example 206, N-(3-(5-(2-ethylpyrimidin-5-yl)-1H-pyrrolo[2,3-b]pyridine-3-carbonyl)-2,6-difluorophenyl)propane-1-sulfonamide]	+++ (IC50(off-target)/IC50(MKK4) > 100)	+++ (IC50(off-target)/IC50(MKK4) > 100)	> 7.00	+++ (IC50(off-target)/IC50(MKK4) > 100)
CCCS(=O)(=O)Nc1c(F)ccc(C(=O)c2c[nH]c3ncc(-c4cnc(CF)nc4)cc23)c1F [Example 207, N-(2,6-difluoro-3-(5-(2-(fluoromethyl)pyrimidin-5-yl)-1H-pyrrolo[2,3-b]pyridine-3-carbonyl)phenyl)propane-1-sulfonamide]	++ (100 ≥ IC50(off-target)/IC50(MKK4) > 10)	+++ (IC50(off-target)/IC50(MKK4) > 100)	6.00 to 7.00	+++ (IC50(off-target)/IC50(MKK4) > 100)
C#Cc1ncc(-c2cnc3[nH]cc(C(=O)c4ccc(F)c(NS(=O)(=O)CCC)c4F)c3c2)cn1 [Example 208, N-(3-(5-(2-ethynylpyrimidin-5-yl)-1H-pyrrolo[2,3-b]pyridine-3-carbonyl)-2,6-difluorophenyl)propane-1-sulfonamide]	+++ (IC50(off-target)/IC50(MKK4) > 100)	++ (100 ≥ IC50(off-target)/IC50(MKK4) > 10)	> 7.00	++ (100 ≥ IC50(off-target)/IC50(MKK4) > 10)

Source: patent US11912701B2, “Protein kinase inhibitors for promoting liver regeneration or reducing or preventing hepatocyte death” (HEPAREGENIX GMBH, priority 2018, dated 2024)
